Test results: US11964990B2, “1,3,4,7-tetrahydro-2H-pyrrolo[3′,2′:5,6]pyrido[2,3-b][1,4]oxazepine bcl-2 inhibitors” (AbbVie Inc., priority 2022, dated 2024)

Legend:
RS4;11 cells = assay: Cell viability assay (CellTiter-Glo) in RS4;11 cell line; type: cell-based; details: 24 hours, 10% Human Serum, 50% decrease in cell viability
Excerpt: (§1) The acute lymphoblastic leukemia (ALL) human cell line RS4;11 (ATCC, Manassas VA) was used as the primary human cell line to assess the cellular activity of compound of the present Examples in vitro and their efficacy in vivo. BH3 profiling, a mitochondrial assay that classifies blocks in the intrinsic apoptotic pathway, has shown that RS4;11 cells were highly dependent on Bcl-2 protein for survival and were sensitive to a Bcl-2 inhibitor (Blood. 2008; 111(4):2300-2309). […] The acute lymphoblastic leukemia cell line Molt-4, which is derived from immature T-lymphoid cells (T-ALL), was used as a counter screen assay.
(§2) Frozen RS4;11 or Molt-4 cells (ATCC, Manassas, VA, USA) were thawed overnight in RPMI 1640 media (Thermo Fisher Scientific, Waltham, MA, USA) supplemented with 1% penicillin/streptomycin (Thermo Fisher Scientific, Waltham, MA, USA), and 10% Human Serum (Sigma, St. Louis, MO, USA). 3000 Cells (0.1×10^6/mL) were seeded in each well of 384-well plate and were treated for 24 hours in a humidified chamber with 5% CO2. Cell viability was determined by CellTiter-Glo as described by the manufacturer's instructions (Promega Corporation, Madison, WI, USA). Responses were determined as a percentage of the control treated cells and the effective concentration (EC50) to induce a 50% decrease in cell viability were determined from sigmoidal dose-response curves using Dotmatics (Dotmatics Software Company, Bishops Stortford, Hertfordshire, England).

Molt-4 cells = assay: Cell viability counter screen assay (CellTiter-Glo) in Molt-4 cells; type: cell-based; details: 24 hours, 10% Human Serum, 50% decrease in cell viability
Excerpt: as §1, §2

| SMILES | EC50 (RS4;11 cells) | EC50 (Molt-4 cells) |
| --- | --- | --- |
| CO[C@H]1CC[C@H](CNc2ccc(S(=O)(=O)NC(=O)c3ccc(N4CCN5CC6=C(c7ccc(Cl)cc7)CC(C)(C)C[C@H]6OCCCOC[C@@H]5C4)cc3N3CCCOc4nc5[nH]ccc5cc43)cc2[N+](=O)[O-])OC1 [Example 13, 4-((4aS,10aR)-14-(4-chlorophenyl)-12,12-dimethyl-1,2,4a,5,8,9,10a,11,13,15-decahydro-7H,12H-benzo[f]pyrazino[2,1-c][1,8]dioxa[4]azacycloundecin-3(4H)-yl)-2-(3,4-dihydro-2H-pyrrolo[3′,2′:5,6]pyrido[2,3-b][1,4]oxazepin-1(7H)-yl)-N-((4-((((2R,5S)-5-methoxytetrahydro-2H-pyran-2-yl)methyl)amino)-3-nitrophenyl)sulfonyl)benzamide] | 2.95 nM | 1700 nM |
| CC1(C)CC(c2ccc(Cl)cc2)=C2CN3CCN(c4ccc(C(=O)NS(=O)(=O)c5ccc(NC[C@H]6C[C@](O)(C7CCC7)C6)c([N+](=O)[O-])c5)c(N5CCCOc6nc7[nH]ccc7cc65)c4)C[C@H]3COCCCO[C@@H]2C1 [Example 15, 4-((4aS,10aR)-14-(4-chlorophenyl)-12,12-dimethyl-1,2,4a,5,8,9,10a,11,13,15-decahydro-7H,12H-benzo[f]pyrazino[2,1-c][1,8]dioxa[4]azacycloundecin-3(4H)-yl)-2-(3,4-dihydro-2H-pyrrolo[3′,2′:5,6]pyrido[2,3-h][1,4]oxazepin-1(7H)-yl)-N-((4-((((1s,3s)-1-hydroxy-[1,1′-bi(cyclobutan)]-3-yl)methyl)amino)-3-nitrophenyl)sulfonyl)benzamide] | 5.64 nM | 2550 nM |
| CC1(C)CC(c2ccc(Cl)cc2)=C2CN3CCN(c4ccc(C(=O)NS(=O)(=O)c5ccc(NC[C@H]6C[C@](O)(CF)C6)c([N+](=O)[O-])c5)c(N5CCCOc6nc7[nH]ccc7cc65)c4)C[C@H]3COCCCO[C@@H]2C1 [Example 16, 4-((4aS,10aR)-14-(4-chlorophenyl)-12,12-dimethyl-1,2,4a,5,8,9,10a,11,13,15-decahydro-7H,12H-benzo[f]pyrazino[2,1-c][1,8]dioxa[4]azacycloundecin-3(4H)-yl)-2-(3,4-dihydro-2H-pyrrolo[3′,2′:5,6]pyrido[2,3-h][1,4]oxazepin-1(7H)-yl)-N-((4-((((1s,3s)-3-(fluoromethyl)-3-hydroxycyclobutyl)methyl)amino)-3-nitrophenyl)sulfonyl)benzamide] | 1.51 nM | 1260 nM |
| CC1(C)CC(c2ccc(Cl)cc2)=C2CN3CCN(c4ccc(C(=O)NS(=O)(=O)c5ccc(NCC6(O)COC6)c([N+](=O)[O-])c5)c(N5CCCOc6nc7[nH]ccc7cc65)c4)C[C@H]3COCCCO[C@@H]2C1 [Example 17, 4-((4aS,10aR)-14-(4-chlorophenyl)-12,12-dimethyl-1,2,4a,5,8,9,10a,11,13,15-decahydro-7H,12H-benzo[f]pyrazino[2,1-c][1,8]dioxa[4]azacycloundecin-3(4H)-yl)-2-(3,4-dihydro-2H-pyrrolo[3′,2′:5,6]pyrido[2,3-b][1,4]oxazepin-1(7H)-yl)-N-((4-(((3-hydroxyoxetan-3-yl)methyl)amino)-3-nitrophenyl)sulfonyl)benzamide] | 2.82 nM | 723 nM |
| CC1(C)CC(c2ccc(Cl)cc2)=C2CN3CCN(c4ccc(C(=O)NS(=O)(=O)c5ccc(NCC6(O)CCOCC6)c([N+](=O)[O-])c5)c(N5CCCOc6nc7[nH]ccc7cc65)c4)C[C@H]3COCCCO[C@@H]2C1 [Example 18, 4-((4aS,10aR)-14-(4-chlorophenyl)-12,12-dimethyl-1,2,4a,5,8,9,10a,11,13,15-decahydro-7H,12H-benzo[f]pyrazino[2,1-c][1,8]dioxa[4]azacycloundecin-3(4H)-yl)-2-(3,4-dihydro-2H-pyrrolo[3′,2′:5,6]pyrido[2,3-b][1,4]oxazepin-1(7H)-yl)-N-((4-(((4-hydroxytetrahydro-2H-pyran-4-yl)methyl)amino)-3-nitrophenyl)sulfonyl)benzamide] | 1.43 nM | 426 nM |
| C[C@@H]1CC[C@H](CNc2ccc(S(=O)(=O)NC(=O)c3ccc(N4CCN5CC6=C(c7ccc(Cl)cc7)CC(C)(C)C[C@H]6OCCCOC[C@@H]5C4)cc3N3CCCOc4nc5[nH]ccc5cc43)cc2[N+](=O)[O-])OC1 [Example 21, 4-((4aS,10aR)-14-(4-chlorophenyl)-12,12-dimethyl-1,2,4a,5,8,9,10a,11,13,15-decahydro-7H,12H-benzo[f]pyrazino[2,1-c][1,8]dioxa[4]azacycloundecin-3(4H)-yl)-2-(3,4-dihydro-2H-pyrrolo[3′,2′:5,6]pyrido[2,3-b][1,4]oxazepin-1(7H)-yl)-N-((4-((((2R,5R)-5-methyltetrahydro-2H-pyran-2-yl)methyl)amino)-3-nitrophenyl)sulfonyl)benzamide] | 4.89 nM | 3280 nM |

Continued, in another order:

| EC50 (RS4;11 cells) | SMILES | EC50 (Molt-4 cells) |
| --- | --- | --- |
| 0.881 nM | CC1(C)CC(c2ccc(Cl)cc2)=C2CN3CCN(c4ccc(C(=O)NS(=O)(=O)c5ccc(OCC6(F)CCN(C7COC7)CC6)c([N+](=O)[O-])c5)c(N5CCCOc6nc7[nH]ccc7cc65)c4)C[C@H]3COCCCO[C@@H]2C1 [Example 19, 4-((4aS,10aR)-14-(4-chlorophenyl)-12,12-dimethyl-1,2,4a,5,8,9,10a,11,13,15-decahydro-7H,12H-benzo[f]pyrazino[2,1-c][1,8]dioxa[4]azacycloundecin-3(4H)-yl)-2-(3,4-dihydro-2H-pyrrolo[3′,2′:5,6]pyrido[2,3-b][1,4]oxazepin-1(7H)-yl)-N-((4-((4-fluoro-1-(oxetan-3-yl)piperidin-4-yl)methoxy)-3-nitrophenyl)sulfonyl)benzamide] | 132 nM |
| 5.21 nM | C[C@@H]1CO[C@@H](COc2ccc(S(=O)(=O)NC(=O)c3ccc(N4CCN5CC6=C(c7ccc(Cl)cc7)CC(C)(C)C[C@H]6OCCCOC[C@@H]5C4)cc3N3CCCOc4nc5[nH]ccc5cc43)cc2[N+](=O)[O-])CO1 [Example 20, 4-((4aS,10aR)-14-(4-chlorophenyl)-12,12-dimethyl-1,2,4a,5,8,9,10a,11,13,15-decahydro-7H,12H-benzo[f]pyrazino[2,1-c][1,8]dioxa[4]azacycloundecin-3(4H)-yl)-2-(3,4-dihydro-2H-pyrrolo[3′,2′:5,6]pyrido[2,3-b][1,4]oxazepin-1(7H)-yl)-N-((4-(((2R,5R)-5-methyl-1,4-dioxan-2-yl)methoxy)-3-nitrophenyl)sulfonyl)benzamide] | 1610 nM |
| 2.78 nM | COCCN1CCC(F)(COc2ncc(S(=O)(=O)NC(=O)c3ccc(N4CCN5CC6=C(c7ccc(Cl)cc7)CC(C)(C)C[C@H]6OCCCOC[C@@H]5C4)cc3N3CCCOc4nc5[nH]ccc5cc43)cc2Cl)CC1 [Example 22, N-((5-chloro-6-((4-fluoro-1-(2-methoxyethyl)piperidin-4-yl)methoxy)pyridin-3-yl)sulfonyl)-4-((4aS,10aR)-14-(4-chlorophenyl)-12,12-dimethyl-1,2,4a,5,8,9,10a,11,13,15-decahydro-7H,12H-benzo[f]pyrazino[2,1-c][1,8]dioxa[4]azacycloundecin-3(4H)-yl)-2-(3,4-dihydro-2H-pyrrolo[3′,2′:5,6]pyrido[2,3-b][1,4]oxazepin-1(7H)-yl)benzamide] | 755 nM |
| 5.29 nM | C[C@H]1CC[C@H](CNc2ccc(S(=O)(=O)NC(=O)c3ccc(N4CCN5CC6=C(c7ccc(Cl)cc7)CC(C)(C)C[C@H]6OCCCOC[C@@H]5C4)cc3N3CCCOc4nc5[nH]ccc5cc43)cc2[N+](=O)[O-])OC1 [Example 23, 4-((4aS,10aR)-14-(4-chlorophenyl)-12,12-dimethyl-1,2,4a,5,8,9,10a,11,13,15-decahydro-7H,12H-benzo[f]pyrazino[2,1-c][1,8]dioxa[4]azacycloundecin-3(4H)-yl)-2-(3,4-dihydro-2H-pyrrolo[3′,2′:5,6]pyrido[2,3-h][1,4]oxazepin-1(7H)-yl)-N-((4-((((2R,5S)-5-methyltetrahydro-2H-pyran-2-yl)methyl)amino)-3-nitrophenyl)sulfonyl)benzamide] | > 10000 nM |
| 4.9 nM | CO[C@H]1C[C@@H](CNc2ccc(S(=O)(=O)NC(=O)c3ccc(N4CCN5CC6=C(c7ccc(Cl)cc7)CC(C)(C)C[C@H]6OCCCOC[C@@H]5C4)cc3N3CCCOc4nc5[nH]ccc5cc43)cc2[N+](=O)[O-])C1 [Example 24] | > 10000 nM |
| 4.38 nM | COC1(CNc2ccc(S(=O)(=O)NC(=O)c3ccc(N4CCN5CC6=C(c7ccc(Cl)cc7)CC(C)(C)C[C@H]6OCCCOC[C@@H]5C4)cc3N3CCCOc4nc5[nH]ccc5cc43)cc2[N+](=O)[O-])CCOCC1 [Example 26, 4-((4aS,10aR)-14-(4-chlorophenyl)-12,12-dimethyl-1,2,4a,5,8,9,10a,11,13,15-decahydro-7H,12H-benzo[f]pyrazino[2,1-c][1,8]dioxa[4]azacycloundecin-3(4H)-yl)-2-(3,4-dihydro-2H-pyrrolo[3′,2′:5,6]pyrido[2,3-b][1,4]oxazepin-1(7H)-yl)-N-((4-(((4-methoxytetrahydro-2H-pyran-4-yl)methyl)amino)-3-nitrophenyl)sulfonyl)benzamide] | > 10000 nM |
